Read-outs that look alike come from different tables or passages of the source.
Key:
ROS1 = ROS1 (Homo sapiens, UniProt P08922); assay: HTRF KinEASE-TK kinase inhibitory assay, ROS1; format: biochemical; details: for ROS1 Inhibition (1μM): kinase inhibition % at 1 μM; for inhibition at 1 µM: read-out: ROS1 Inhibition (1μM)
ALK = details: read-out: enzymatic IC50 against ALK; cited from earlier work
Ba/F3 CD74-ROS1^WT cell = Ba/F3 CD74-ROS1^WT cell (Homo sapiens, UniProt P04233+P08922); assay: Antiproliferative CCK-8 assay, Ba/F3 CD74-ROS1^WT; format: cell-based; details: 72 h exposure, IC50, at least three independent experiments; for IC50: read-out: Ba/F3 cellular activities (nM) CD74-ROS1^WT
[1] = test system: HCC-78 cell line harbouring SLC34A2-ROS1 fusion; assay: Antiproliferative MTT assay, HCC-78; format: cell-based, human; details: read-out: Cellular IC50 (μM) HCC-78
[2] = target: Ba/F3 CD74-ROS1^L2026M cell (Homo sapiens, UniProt P04233+P08922, L2026M); assay: Antiproliferative CCK-8 assay, Ba/F3 CD74-ROS1^L2026M; format: cell-based; details: read-out: Ba/F3 cellular activities (nM) CD74-ROS1^L2026M; 72 h exposure, IC50, at least three independent experiments
[3] = target: Ba/F3 CD74-ROS1^G2032R cell (Homo sapiens, UniProt P04233+P08922, G2032R); assay: Antiproliferative CCK-8 assay, Ba/F3 CD74-ROS1^G2032R; format: cell-based; details: for IC50: read-out: Ba/F3 cellular activities (nM) CD74-ROS1^G2032R, 72 h exposure, IC50, at least three independent experiments
ALK^L1196M = ALK^L1196M (Homo sapiens, UniProt Q9UM73, L1196M); assay: HTRF KinEASE-TK kinase inhibitory assay, ALK^L1196M; format: biochemical
[4] = target: Ba/F3 EML4-ALK^L1196M cell (Homo sapiens, UniProt Q9HC35+Q9UM73, L1196M); format: cell-based; details: read-out: Ba/F3 cellular activities (nM) EML4-ALK^L1196M; 72 h exposure, IC50, at least three independent experiments
Ba/F3 EML4-ALK^WT cell = Ba/F3 EML4-ALK^WT cell (Homo sapiens, UniProt Q9HC35+Q9UM73); format: cell-based; details: read-out: Ba/F3 cellular activities (nM) EML4-ALK^WT; 72 h exposure, IC50, at least three independent experiments
ALK^WT = ALK^WT (Homo sapiens, UniProt Q9UM73); assay: HTRF KinEASE-TK kinase inhibitory assay, ALK wild type; format: biochemical; details: for ALK Inhibition (1μM): kinase inhibition % at 1 μM
[5] = test system: NCI-H3122 cell line harbouring EML4-ALK fusion; assay: Antiproliferative MTT assay, NCI-H3122; format: cell-based, human; details: read-out: Cellular IC50 (μM) NCI-H3122
c-MET = c-MET (Homo sapiens, UniProt P08581); assay: HTRF kinase inhibitory assay, c-MET; format: biochemical; details: for c-MET Inhibition (1μM): kinase inhibition % at 1 μM
ALK^G1202R = ALK^G1202R (Homo sapiens, UniProt Q9UM73, G1202R); assay: HTRF KinEASE-TK kinase inhibitory assay, ALK^G1202R; format: biochemical
[6] = test system: phosphorylation of ROS1 and ERK in CD74-ROS1^L2026M cell; assay: Western blot of ROS1 and ERK phosphorylation, CD74-ROS1^L2026M Ba/F3 cells; format: cell-based
[7] = test system: phosphorylation of ROS1 and ERK in CD74-ROS1^WT cell; assay: Western blot of ROS1 and ERK phosphorylation, CD74-ROS1^WT Ba/F3 cells; format: cell-based
ROS1-G2032R = details: read-out: cellular IC50 ROS1-G2032R; cited from earlier work
[8] = test system: ROS1 phosphorylation in CD74-ROS1^G2032R cell; assay: Western blot of ROS1 phosphorylation, CD74-ROS1^G2032R Ba/F3 cells; format: cell-based; details: up to 1000 nM
NCI-H3122 cells = assay: Apoptosis assay; format: cell-based, human; details: 48 h, vehicle 11.24%
[9] = test system: phosphorylation of ALK in EML4-ALK^L1196M cell; assay: Western blot of phosphorylation, EML4-ALK^L1196M Ba/F3 cells; format: cell-based
HCC-78 cells = assay: Apoptosis assay; format: cell-based, human
[10] = read-out: ROS1 IC50, average of two independent experiments
[11] = MTT, 72 h, mean of at least three independent experiments
[12] = read-out: Enzymatic activities (nM) ALK^L1196M, IC50, average of two independent experiments
[13] = read-out: Enzymatic activities (nM) ALK^G1202R, IC50, average of two independent experiments
[14] = average of two independent experiments

Compound: C[C@@H](Oc1cc(-c2ccc3c(c2)NC(=O)C32CCN(C)CC2)cnc1N)c1c(Cl)ccc(F)c1Cl [SMU-B, reference compound]
- IC50 (ROS1; [10]): 1.48 nM
- IC50 (ALK): < 0.5 nM

Compound: (R)-5–(6-amino-5–(1-(4'-fluoro-[1,1'-biphenyl]-2-yl)ethoxy)pyridin-3-yl)-1'-methylspiro[indoline-3,4'-piperidin]-2-one [C02]
- Ba/F3 cellular activities (nM) CD74-ROS1^WT (Ba/F3 CD74-ROS1^WT cell): comparable to Crizotinib
- IC50 (Ba/F3 CD74-ROS1^WT cell): 5.4 ± 1 nM
- IC50 [1, 11]: 4.4 ± 0.5 µM
- ROS1 Inhibition (1μM) (ROS1; average of two independent experiments, 1 µM): 102%
- IC50 (ROS1; [10]): 4.6 nM
- IC50 [2]: 21.3 ± 4.7 nM
- IC50 [3]: 107 ± 12.6 nM
- IC50 (ALK^L1196M; [12]): 643 nM
- IC50 [4]: 148 ± 27.3 nM
- IC50 (Ba/F3 EML4-ALK^WT cell): 191 ± 51.8 nM
- ALK Inhibition (1μM) (ALK^WT; 1 µM): 98%
- IC50 (ALK^WT; read-out: ALK IC50): 30.1 nM
- IC50 [5, 11]: 2.8 ± 0.9 µM
- c-MET Inhibition (1μM) (c-MET; 1 µM): 69%
- IC50 (ALK^G1202R; [13]): 276 nM

Compound: C[C@@H](Oc1cc(-c2cnn(C)c2)cnc1N)c1ccccc1-c1ccccc1 [B08, (R)-3–(1-([1,1'-biphenyl]-2-yl)ethoxy)-5–(1-methyl-1H-pyrazol-4-yl)pyridin-2-amine]
- IC50 (Ba/F3 CD74-ROS1^WT cell): 20.9 ± 1.7 nM
- IC50 ([1]; Homo sapiens, HCC78, 72 h): 4.6 ± 0.8 µM
- IC50 (ROS1): 37.4 nM
- fold more potent than compound B03, ROS1 IC50 (ROS1): about 10 fold
- inhibition at 1 µM (ROS1): 103%
- IC50 [2]: 168 ± 56.3 nM
- IC50 [3]: 317 ± 92.1 nM
- IC50 (ALK^L1196M): > 1000 nM
- IC50 [4]: 1810 ± 270 nM
- IC50 (Ba/F3 EML4-ALK^WT cell): 681 ± 151 nM
- IC50 (ALK^WT): 67.4 nM
- fold more potent than compound B03, ALK IC50 (ALK^WT): ~4 fold
- inhibition at 1 µM (ALK^WT; read-out: ALK Inhibition (1μM)): 100%
- IC50 ([5]; Homo sapiens, NCI-H3122, 72 h): 5.7 ± 0.6 µM
- inhibition at 1 µM (c-MET; read-out: c-MET Inhibition (1μM)): 64%
- IC50 (ALK^G1202R): 195 nM

Compound: (R)-5–(6-amino-5–(1-(4'-methoxy-[1,1'-biphenyl]-2-yl)ethoxy)pyridin-3-yl)-1'-methylspiro[indoline-3,4'-piperidin]-2-one [C03]
- IC50 (Ba/F3 CD74-ROS1^WT cell): 18.3 ± 1.2 nM
- IC50 [1, 11]: 4.6 ± 0.23 µM
- ROS1 Inhibition (1μM) (ROS1; [14]): 101%
- IC50 (ROS1; [10]): 11.6 nM
- IC50 [2]: 38.3 ± 5.9 nM
- IC50 [3]: 94.4 ± 31.9 nM
- IC50 [4]: 185 ± 22.2 nM
- IC50 (Ba/F3 EML4-ALK^WT cell): 228 ± 47.3 nM
- ALK Inhibition (1μM) (ALK^WT): 94%
- IC50 (ALK^WT; read-out: ALK IC50): 56.1 nM
- IC50 [5, 11]: 1.9 ± 0.1 µM
- c-MET Inhibition (1μM) (c-MET): 63%
- IC50 (ALK^G1202R; [13]): 492 nM

Compound: C[C@@H](Oc1cc(-c2cnn(C3CCNCC3)c2)cnc1N)c1c(Cl)ccc(F)c1Cl [Crizotinib, reference compound]
- IC50 ([1]; Homo sapiens, HCC78, 72 h): 4.5 ± 1.4 µM
- inhibition at 1 µM (ROS1): 101%
- phosphorylation of ROS1 and ERK, CD74-ROS1^L2026M cell [6]: attenuated phosphorylation of ROS1 and its key downstream molecule ERK in a dose-dependent manner
- phosphorylation of ROS1 and ERK, CD74-ROS1^WT cell [7]: attenuated phosphorylation of ROS1 and its key downstream molecule ERK in a dose-dependent manner

Compound: C[C@H]1Oc2cc(cnc2N)-c2c(nn(C)c2C#N)CN(C)C(=O)c2ccc(F)cc21 [Lorlatinib]
- IC50 (ROS1-G2032R): 203 nM

Compound: (R)-5–(5-(1-([1,1'-biphenyl]-2-yl)ethoxy)-6-aminopyridin-3-yl)-1'-methylspiro[indoline-3,4'-piperidin]-2-one [C01]
- Ba/F3 cellular activities (nM) CD74-ROS1^WT (Ba/F3 CD74-ROS1^WT cell): comparable to Crizotinib
- IC50 (Ba/F3 CD74-ROS1^WT cell): 7.6 ± 0.6 nM
- IC50 [1, 11]: 3.9 ± 0.5 µM
- ROS1 Inhibition (1μM) (ROS1; [14]): 100%
- IC50 (ROS1; [10]): 4.7 nM
- ROS1 phosphorylation, CD74-ROS1^G2032R cell [8]: significant inhibition of ROS1 phosphorylation occurred in a dose-dependent manner
- percentage of apoptotic NCI-H3122 cell (NCI-H3122 cells; 1.5 μM (IC50/2)): 15.61%
- percentage of apoptotic NCI-H3122 cell (NCI-H3122 cells; 3.0 μM (1 IC50)): 29.47%
- percentage of apoptotic NCI-H3122 cell (NCI-H3122 cells; 6.0 μM (2 IC50)): 35.13%
- phosphorylation, EML4-ALK^L1196M cell [9]: persistent potency
- IC50 [2]: 33.1 ± 1.4 nM
- fold more potent than Crizotinib, CD74-ROS1^G2032R cell ([3]; ratio of cellular IC50 to Crizotinib): about 30 fold
- IC50 [3]: 42.3 nM
- phosphorylation of ROS1 and ERK, CD74-ROS1^L2026M cell [6]: attenuated phosphorylation of ROS1 and its key downstream molecule ERK in a dose-dependent manner
- IC50 (ALK^L1196M; [12]): 404 nM
- percentage of apoptotic HCC-78 cell (HCC-78 cells; 2.0 μM (IC50/2), 48 h, vehicle 10.7%): 15.9%
- percentage of apoptotic HCC-78 cell (HCC-78 cells; 7.8 μM (2 IC50), 48 h, vehicle 10.7%): 31.7%
- percentage of apoptotic HCC-78 cell (HCC-78 cells; C01 3.9 μM (1 IC50) vs Crizotinib 4.5 μM (1 IC50)): superior to that of Crizotinib treatment group
- IC50 [4]: 120 ± 17.3 nM
- IC50 (Ba/F3 EML4-ALK^WT cell): 145 ± 36 nM
- phosphorylation of ROS1 and ERK, CD74-ROS1^WT cell [7]: attenuated phosphorylation of ROS1 and its key downstream molecule ERK in a dose-dependent manner
- ALK Inhibition (1μM) (ALK^WT): 101%
- IC50 (ALK^WT; read-out: ALK IC50): 25.6 nM
- IC50 [5, 11]: 3 ± 0.1 µM
- c-MET Inhibition (1μM) (c-MET): 70%
- fold potency superior to Crizotinib, ALK^G1202R enzyme (ALK^G1202R; ratio of enzymatic IC50 to Crizotinib): 10 fold
- IC50 (ALK^G1202R; [13]): 49.1 nM

— PMC10288926 (Journal of Enzyme Inhibition and Medicinal Chemistry, 2023)
